According to US11220504B2, “Pyrrolo[3,2-d] pyrimidine derivatives for the treatment of viral infections and other diseases” (JANSSEN SCIENCES IRELAND UNLIMITED COMPANY, priority 2012, dated 2022):

What was measured:
human TLR7 = target: T1, human TLR7 (Homo sapiens, UniProt Q9NYK1); assay: TLR7 cellular reporter assay (HEK293, NFκB-luc); type: cell-based; details: HEK293 cells transfected with CMV-TLR7 and NFκB-luc, 6 hours incubation; lowest effective concentration
T1 construct: expressed in transfected cells; host or cells: HEK293 cells, transient transfection with CMV-TLR7 plasmid and NFκB-luc plasmid
T1 sequence (Q9NYK1 27-1049): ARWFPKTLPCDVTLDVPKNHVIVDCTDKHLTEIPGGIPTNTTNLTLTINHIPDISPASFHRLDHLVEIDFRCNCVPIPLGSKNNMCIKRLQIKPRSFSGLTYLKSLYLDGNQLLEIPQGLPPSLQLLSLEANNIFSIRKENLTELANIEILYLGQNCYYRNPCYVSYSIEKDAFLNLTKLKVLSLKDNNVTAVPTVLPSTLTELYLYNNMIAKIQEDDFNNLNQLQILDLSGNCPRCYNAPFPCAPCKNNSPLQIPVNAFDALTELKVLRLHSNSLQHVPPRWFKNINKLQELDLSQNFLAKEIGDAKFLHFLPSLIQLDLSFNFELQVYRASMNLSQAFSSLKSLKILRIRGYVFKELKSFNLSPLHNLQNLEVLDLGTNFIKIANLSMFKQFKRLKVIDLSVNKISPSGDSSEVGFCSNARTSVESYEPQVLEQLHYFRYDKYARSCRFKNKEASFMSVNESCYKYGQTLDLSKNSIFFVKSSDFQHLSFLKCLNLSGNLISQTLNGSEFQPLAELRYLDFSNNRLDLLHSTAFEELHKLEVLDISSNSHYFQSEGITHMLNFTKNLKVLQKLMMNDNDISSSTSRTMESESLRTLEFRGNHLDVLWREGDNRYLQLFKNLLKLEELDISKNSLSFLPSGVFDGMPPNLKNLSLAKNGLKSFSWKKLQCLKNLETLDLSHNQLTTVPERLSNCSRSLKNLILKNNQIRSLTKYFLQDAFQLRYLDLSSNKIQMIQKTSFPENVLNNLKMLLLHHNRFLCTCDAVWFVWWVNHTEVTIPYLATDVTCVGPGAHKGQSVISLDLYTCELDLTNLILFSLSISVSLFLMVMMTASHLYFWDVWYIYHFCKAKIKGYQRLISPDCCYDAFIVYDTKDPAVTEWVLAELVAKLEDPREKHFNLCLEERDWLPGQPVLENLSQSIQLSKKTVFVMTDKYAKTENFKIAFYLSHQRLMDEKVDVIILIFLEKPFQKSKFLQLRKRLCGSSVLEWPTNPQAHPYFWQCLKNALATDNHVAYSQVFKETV
How it was run: (§1)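 HEK293 cells transiently transfected with receptor expression vector plus NFκB-luciferase reporter, exposed to compound (added in 4% DMSO) for 6 hours at 37° C, 5% CO2. Luciferase activity measured by luminescence; dose-response curves from quadruplicate measurements.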

[1] = system: interferon-stimulated responsive elements (ISRE); assay: Activation of ISRE promoter elements by conditioned media from PBMC (HEK-ISREluc); type: cell-based, human; details: Homo sapiens; conditioned media from PBMC transferred to HEK-ISREluc cells, 24 hours; lowest effective concentration; read-out: PBMC LEC
How it was run: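 Human PBMCs (≥2 donors, RPMI + 10% human AB serum, 2×10^5 cells/well) incubated overnight with compound; supernatant transferred to HEK293 cells stably carrying pISRE-Luc for 24 h, then luciferase read. LEC = compound concentration on PBMCs giving luciferase signal at least two-fold above assay SD; recombinant IFN-α-2a standard.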

human TLR8 = target: T2, human TLR8 (Homo sapiens, UniProt Q9NR97); assay: TLR8 cellular reporter assay (HEK293, NFκB-luc); type: cell-based; details: HEK293 cells transfected with CMV-TLR8 and NFκB-luc, 6 hours incubation; lowest effective concentration
T2 construct: expressed in transfected cells; host or cells: HEK293 cells, transient transfection with TLR8 plasmid and NFκB-luc plasmid
T2 sequence (Q9NR97 27-1041): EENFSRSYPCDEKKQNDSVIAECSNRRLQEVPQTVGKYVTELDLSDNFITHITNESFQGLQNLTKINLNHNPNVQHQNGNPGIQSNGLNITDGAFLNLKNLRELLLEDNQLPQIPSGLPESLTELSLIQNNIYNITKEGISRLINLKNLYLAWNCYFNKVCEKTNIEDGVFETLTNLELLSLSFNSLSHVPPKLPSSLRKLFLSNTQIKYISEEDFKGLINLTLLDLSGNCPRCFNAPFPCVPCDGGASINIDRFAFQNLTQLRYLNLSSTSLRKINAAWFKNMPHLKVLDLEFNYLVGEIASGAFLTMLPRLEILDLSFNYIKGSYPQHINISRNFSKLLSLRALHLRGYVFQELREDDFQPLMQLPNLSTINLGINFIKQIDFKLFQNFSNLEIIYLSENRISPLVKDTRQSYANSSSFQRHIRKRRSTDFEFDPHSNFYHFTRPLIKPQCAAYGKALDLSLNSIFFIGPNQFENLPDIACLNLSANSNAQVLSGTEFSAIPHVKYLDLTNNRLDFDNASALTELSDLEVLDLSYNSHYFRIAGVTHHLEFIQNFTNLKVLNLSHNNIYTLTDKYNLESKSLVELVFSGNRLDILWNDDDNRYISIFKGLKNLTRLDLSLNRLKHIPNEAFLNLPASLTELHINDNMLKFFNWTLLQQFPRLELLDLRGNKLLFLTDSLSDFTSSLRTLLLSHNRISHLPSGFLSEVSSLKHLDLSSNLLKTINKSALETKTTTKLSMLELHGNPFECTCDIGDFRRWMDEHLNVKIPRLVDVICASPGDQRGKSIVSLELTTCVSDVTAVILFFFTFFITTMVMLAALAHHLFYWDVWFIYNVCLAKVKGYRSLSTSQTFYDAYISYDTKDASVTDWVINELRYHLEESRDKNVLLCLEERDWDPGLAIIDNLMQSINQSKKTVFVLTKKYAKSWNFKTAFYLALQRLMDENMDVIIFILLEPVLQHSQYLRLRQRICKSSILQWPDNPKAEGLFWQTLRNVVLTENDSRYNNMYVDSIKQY
How it was run: as §1

Compound	TLR7 LEC (human TLR7)	TLR8 LEC (human TLR8)	minimal effective concentration [1]
COCCNc1nc(N)nc2ccn(Cc3ncc(C)c(OC)c3C)c12 [Compound 147]	4.49 µM	>25 µM	2.02 µM
CCCCNc1nc(N)nc2ccn(C[C@H]3CCCO3)c12 [Compound 148]	0.16 µM	3.93 µM	0.056 µM
CCCCNc1nc(N)nc2ccn(Cc3cccc4c3OCC4)c12 [Compound 149]	0.02 µM	>25 µM	0.006 µM
COCCNc1nc(N)nc2ccn(Cc3cccc4c3OCC4)c12 [Compound 150]	0.25 µM	>25 µM	0.054 µM
Cc1cc(CNc2nc(N)nc3ccn(Cc4cccc(CN5CCCC5)c4)c23)no1 [Compound 153]	0.05 µM	>25 µM	0.002 µM
COCCNc1nc(N)nc2ccn(C[C@H]3CCCO3)c12 [Compound 160]	8.07 µM	>25 µM	1.81 µM
CCCCNc1nc(N)nc2ccn(Cc3ccccc3OC(F)F)c12 [Compound 161]	0.02 µM	>25 µM	0.009 µM
COCCNc1nc(N)nc2ccn(Cc3ccccc3OC(F)F)c12 [Compound 162]	0.32 µM	>25 µM	0.128 µM
CCCCNc1nc(N)nc2ccn(Cc3cccc4c3OCCO4)c12 [Compound 163]	<0.01 µM	0.75 µM	0.001 µM
COCCNc1nc(N)nc2ccn(Cc3cccc4c3OCCO4)c12 [Compound 164]	0.04 µM	15.93 µM	0.025 µM
Cc1nc(CNc2nc(N)nc3ccn(Cc4ccccn4)c23)no1 [Compound 173]	0.53 µM	>25 µM	0.066 µM
Cc1cc(CNc2nc(N)nc3ccn(Cc4cn(-c5ccccc5)nn4)c23)no1 [Compound 176]	0.04 µM	>25 µM	0.009 µM
Cc1nc(CNc2nc(N)nc3ccn(Cc4ccccn4)c23)c(C)o1 [Compound 177]	8.67 µM	>25 µM	3.93 µM
Cc1cc(CNc2nc(N)nc3ccn(Cc4ccccn4)c23)nn1C [Compound 187]	4.78 µM	>25 µM	0.52 µM
Cn1cnc(CNc2nc(N)nc3ccn(Cc4ccccn4)c23)c1 [Compound 188]	7.62 µM	>25 µM	0.047 µM
Cn1cc(CNc2nc(N)nc3ccn(Cc4ccccn4)c23)nn1 [Compound 193]	11.3 µM	>25 µM	0.447 µM

The next lines start with results.

TLR7 LEC (human TLR7)	TLR8 LEC (human TLR8)	Compound	minimal effective concentration [1]
0.10 µM	>25 µM	Cc1cc(CNc2nc(N)nc3ccn(Cc4cccc(C(F)(F)F)n4)c23)no1 [Compound 143]	0.016 µM
0.08 µM	>25 µM	Cc1cc(CNc2nc(N)nc3ccn(Cc4cscn4)c23)no1 [Compound 154]	0.017 µM
0.03 µM	>25 µM	Cc1cc(CNc2nc(N)nc3ccn(Cc4cn5ccccc5n4)c23)no1 [Compound 157]	0.003 µM
0.05 µM	>25 µM	Cc1cc(CNc2nc(N)nc3ccn(Cc4cccc(Cl)n4)c23)no1 [Compound 159]	0.019 µM
0.09 µM	>25 µM	COc1ccnc(Cn2ccc3nc(N)nc(NCc4cc(C)on4)c32)c1 [Compound 167]	0.008 µM
0.09 µM	>25 µM	COc1ccnc(Cn2ccc3nc(N)nc(NCc4cc(C)on4)c32)c1OC [Compound 168]	0.011 µM
0.04 µM	>25 µM	COc1c(C)cnc(Cn2ccc3nc(N)nc(NCc4cc(C)on4)c32)c1C [Compound 169]	0.011 µM
1.40 µM	>25 µM	Cc1cc(CNc2nc(N)nc3ccn(Cc4cccc(C(N)=O)n4)c23)no1 [Compound 172]	0.017 µM
0.02 µM	>25 µM	Cc1ccc(Cn2ccc3nc(N)nc(NCc4cc(C)on4)c32)nc1 [Compound 175]	0.009 µM
0.15 µM	>25 µM	Cc1cc(CNc2nc(N)nc3ccn(Cc4cccc(F)n4)c23)no1 [Compound 178]	0.014 µM
0.02 µM	>25 µM	COc1ncccc1Cn1ccc2nc(N)nc(NCc3cc(C)on3)c21 [Compound 179]	0.003 µM
0.01 µM	>25 µM	COc1cc(OC)nc(Cn2ccc3nc(N)nc(NCc4cc(C)on4)c32)n1 [Compound 180]	0.004 µM
0.06 µM	20.2 µM	Cc1cc(CNc2nc(N)nc3ccn(Cc4cc(C)on4)c23)no1 [Compound 181]	0.015 µM
0.05 µM	>25 µM	Cc1cc(CNc2nc(N)nc3ccn(Cc4cc5ccccc5cn4)c23)no1 [Compound 182]	0.018 µM
0.59 µM	>25 µM	Cc1cc(CNc2nc(N)nc3ccn(Cc4ccc5cccnc5n4)c23)no1 [Compound 183]	0.009 µM
0.07 µM	>25 µM	Cc1cc(CNc2nc(N)nc3ccn(Cc4ncccc4C)c23)no1 [Compound 185]	0.018 µM
0.14 µM	>25 µM	Cc1cc(CNc2nc(N)nc3ccn(Cc4ncccn4)c23)no1 [Compound 186]	0.035 µM
0.07 µM	>25 µM	Cc1cc(CNc2nc(N)nc3ccn(Cc4csc(C)n4)c23)no1 [Compound 192]	0.03 µM
